{
  "source": "paper PMC4114533",
  "about": "“Synthesis, Anti-tubulin and Antiproliferative SAR of Steroidomimetic Dihydroisoquinolinones” (Chemmedchem, 2014)",
  "key": {"Colon HCT-116": {"tested_on": "Colon HCT-116", "test": "NCI 60-cell line assay, HCT-116", "type": "cell-based", "details": "Homo sapiens, NCI-60 panel, mean of three determinations", "description": "(§1) Data from seven cell lines are presented along with the mean activity across the whole panel (MGM value). Screening was conducted at concentrations ranging from 10 nM upwards, with maximal activity (where a 50 % growth inhibition was obtained in all cell lines at a concentration of 10 nM) being indicated by an MGM value of 10 nM."}, "Melanoma UACC-62": {"tested_on": "Melanoma UACC-62", "test": "NCI 60-cell line assay, UACC-62", "type": "cell-based", "details": "Homo sapiens, NCI-60 panel, lowest concentration screened 10 nM", "description": "as §1"}, "NCI 60-cell line panel": {"tested_on": "NCI 60-cell line panel", "test": "NCI 60-cell line assay, mean across whole panel (MGM)", "type": "cell-based", "details": "NCI-60 panel", "description": "as §1"}, "Bovine brain tubulin [1]": {"biological_target": "T1, Bovine brain tubulin (Bos taurus, UniProt P81947+Q6B856)", "T1 construct": "from tissue; host or cells: bovine brain", "T1 sequence (Q6B856 whole entry)": "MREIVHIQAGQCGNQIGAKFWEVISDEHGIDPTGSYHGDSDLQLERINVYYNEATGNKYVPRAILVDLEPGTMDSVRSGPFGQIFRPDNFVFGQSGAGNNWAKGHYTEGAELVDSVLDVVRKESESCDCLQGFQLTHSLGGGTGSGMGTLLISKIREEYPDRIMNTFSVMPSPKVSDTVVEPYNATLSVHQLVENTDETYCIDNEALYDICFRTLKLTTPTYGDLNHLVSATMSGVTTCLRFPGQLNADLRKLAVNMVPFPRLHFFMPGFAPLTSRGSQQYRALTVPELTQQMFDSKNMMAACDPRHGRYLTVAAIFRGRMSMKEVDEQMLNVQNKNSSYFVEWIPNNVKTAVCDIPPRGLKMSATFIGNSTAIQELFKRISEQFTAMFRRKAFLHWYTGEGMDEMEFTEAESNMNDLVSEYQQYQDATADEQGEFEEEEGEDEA", "T1 sequence (P81947 whole entry)": "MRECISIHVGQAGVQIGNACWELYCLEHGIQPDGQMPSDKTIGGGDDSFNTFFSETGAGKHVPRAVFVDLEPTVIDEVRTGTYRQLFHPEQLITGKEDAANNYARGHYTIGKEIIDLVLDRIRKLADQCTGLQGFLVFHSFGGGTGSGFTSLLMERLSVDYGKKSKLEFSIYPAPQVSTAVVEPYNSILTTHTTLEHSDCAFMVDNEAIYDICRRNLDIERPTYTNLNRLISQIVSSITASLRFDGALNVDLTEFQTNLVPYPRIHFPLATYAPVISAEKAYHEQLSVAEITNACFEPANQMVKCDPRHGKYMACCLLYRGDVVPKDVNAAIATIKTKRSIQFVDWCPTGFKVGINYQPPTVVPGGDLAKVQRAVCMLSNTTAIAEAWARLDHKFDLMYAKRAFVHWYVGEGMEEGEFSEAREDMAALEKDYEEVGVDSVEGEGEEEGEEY", "test": "Inhibition of [3H]colchicine binding to tubulin", "details": "5 μM inhibitor, 1.0 μM tubulin, 5.0 μM [3H]colchicine, mean ±SD; read-out: CB [% inhib.] 5 μM inhibitor", "description": "(§2) Tubulin assays: Bovine brain tubulin, prepared as described previously,[16] was used in studies presented here. Assembly IC50 values were determined as described in detail elsewhere.[17] Briefly, 1.0 mg mL^−1 (10 μM) tubulin was pre-incubated without GTP with varying compound concentrations for 15 min at 30 °C. Reaction mixtures were placed on ice, and GTP (final concentration, 0.4 mM) was added. The reaction mixtures were transferred to cuvettes, held at 0 °C in a recording spectrophotometer. Baselines were established at 0 °C, and increase in turbidity was followed for 20 min following a rapid (<30 s) jump to 30 °C. Compound concentrations required to decrease the turbidity increase by 50 % were determined. The method for measuring inhibition of the binding of [^3H]colchicine to tubulin was described in detail previously.[18] Reaction mixtures contained 0.1 mg mL^−1 (1.0 μM) tubulin, 5.0 μM [^3H]colchicine, and potential inhibitor at 5.0 μM. […] A minimum of two experiments were performed with each compound."}, "Leukemia CCRF-CEM": {"tested_on": "Leukemia CCRF-CEM", "test": "NCI 60-cell line assay, CCRF-CEM", "type": "cell-based", "details": "Homo sapiens, NCI-60 panel, mean of three determinations", "description": "as §1"}, "Renal SN12-C": {"tested_on": "Renal SN12-C", "test": "NCI 60-cell line assay, SN12-C", "type": "cell-based", "details": "Homo sapiens, SN12C; NCI-60 panel, mean of three determinations", "description": "as §1"}, "Ovarian OVCAR-3": {"tested_on": "Ovarian OVCAR-3", "test": "NCI 60-cell line assay, OVCAR-3", "type": "cell-based", "details": "Homo sapiens, NCI-60 panel, lowest concentration screened 10 nM", "description": "as §1"}, "Bovine brain tubulin [2]": {"tested_on": "Bovine brain tubulin", "test": "Tubulin polymerisation (assembly) assay", "type": "biochemical", "details": "10 μM tubulin, mean ±SD of at least two determinations; read-out: TP IC50 (tubulin polymerisation)", "description": "as §2"}, "[3]": {"tested_on": "MDA MB-231 human breast cancer cells", "test": "Antiproliferative assay (WST-1, 96 h), MDA MB-231", "type": "cell-based", "details": "MDA MB-231 cells, WST-1, mean of three determinations", "description": "(§3) Cell lines: DU-145 (brain metastasis carcinoma of the prostate) and MDA MB-231 (metastatic pleural effusion of breast adenocarcinoma) established human cell lines were obtained from ATCC Global Bioresource Center. Cells were maintained in a 5 % CO2 humidified atmosphere at 37 °C in RPMI-1640 medium, supplemented with 10 % fetal bovine serum, penicillin, (100 U mL^−1), and streptomycin (0.1 mg mL^−1). The effect of drugs on tubule formation was assessed using an angiogenesis kit (TCS-Cellworks).\n(§4) Antiproliferative assays: DU-145 and MDA MB-231 cells were seeded into 96-well microtitre plates (5000 cells per well) and treated with compound (10^−9–10^−4 M) or with vehicle control. At 96 h post-treatment, live cell counts were determined by WST-1 cell proliferation assay (Roche, Penzberg, Germany), as per the manufacturer’s instructions. Viability results were expressed as a percentage of mean control values resulting in the calculation of the 50 % growth inhibition (GI50). All experiments were performed in triplicate."}, "CNS SF-539": {"tested_on": "CNS SF-539", "test": "NCI 60-cell line assay, SF-539", "type": "cell-based", "details": "CNSSF-539; NCI-60 panel, mean of three determinations", "description": "as §1"}, "Lung HOP-62": {"tested_on": "Lung HOP-62", "test": "NCI 60-cell line assay, HOP-62", "type": "cell-based", "details": "Homo sapiens, NCI-60 panel, mean of three determinations", "description": "as §1"}, "[4]": {"tested_on": "DU-145 human prostate cancer cells", "test": "Antiproliferative assay (WST-1, 96 h), DU-145", "type": "cell-based", "details": "Homo sapiens; DU-145 cells, 96 h, WST-1, mean of three determinations", "description": "as §3, §4"}},
  "data": [
    {"smiles": "COc1cc2c(cc1O)CCN(C(=O)c1cc(OC)c(OC)c(OC)c1)C2=O", "note": "[16 g, 6-Hydroxy-7-methoxy-2-(3,4,5-trimethoxybenzoyl)-3,4-dihydroisoquinolin-1(2H)-one]", "values": [
      {"measurement": "GI50", "setting": "Colon HCT-116", "result": 21.6, "unit": "nM"},
      {"measurement": "GI50", "setting": "Melanoma UACC-62", "result": "< 10", "unit": "nM"},
      {"measurement": "mean activity in the NCI 60-cell line assay", "setting": "NCI 60-cell line panel", "result": 33, "unit": "nM"},
      {"measurement": "MGM (mean concentration that caused 50 % growth inhibition in all 60 cell lines)", "setting": "NCI 60-cell line panel; all 60 cell lines", "result": 0.033, "unit": "µM"},
      {"measurement": "inhibition at 5 µM", "setting": "Bovine brain tubulin [1]", "result": "83 ± 2", "unit": "%"},
      {"measurement": "GI50", "setting": "Leukemia CCRF-CEM", "result": 17.1, "unit": "nM"},
      {"measurement": "GI50", "setting": "Renal SN12-C", "result": 56, "unit": "nM"},
      {"measurement": "GI50", "setting": "Ovarian OVCAR-3", "result": "< 10", "unit": "nM"},
      {"measurement": "IC50", "setting": "Bovine brain tubulin [2]", "result": "1300 ± 100", "unit": "nM"},
      {"measurement": "GI50", "setting": "[3]", "result": 71, "unit": "nM"},
      {"measurement": "GI50", "setting": "CNS SF-539", "result": 10.2, "unit": "nM"},
      {"measurement": "GI50", "setting": "Lung HOP-62", "result": 29.5, "unit": "nM"},
      {"measurement": "GI50", "setting": "[4]", "result": 51, "unit": "nM"}
    ]}
  ]
}
